The text below walks through data of ChEMBL document CHEMBL5223177, “Pyrazole Ureas as Low Dose, CNS Penetrant Glucosylceramide Synthase Inhibitors for the Treatment of Parkinson's Disease” (ACS Med Chem Lett, 2023).

The target in assay [1] is T1, Ceramide glucosyltransferase (Homo sapiens) (UniProt Q16739).
T1 sequence (whole entry): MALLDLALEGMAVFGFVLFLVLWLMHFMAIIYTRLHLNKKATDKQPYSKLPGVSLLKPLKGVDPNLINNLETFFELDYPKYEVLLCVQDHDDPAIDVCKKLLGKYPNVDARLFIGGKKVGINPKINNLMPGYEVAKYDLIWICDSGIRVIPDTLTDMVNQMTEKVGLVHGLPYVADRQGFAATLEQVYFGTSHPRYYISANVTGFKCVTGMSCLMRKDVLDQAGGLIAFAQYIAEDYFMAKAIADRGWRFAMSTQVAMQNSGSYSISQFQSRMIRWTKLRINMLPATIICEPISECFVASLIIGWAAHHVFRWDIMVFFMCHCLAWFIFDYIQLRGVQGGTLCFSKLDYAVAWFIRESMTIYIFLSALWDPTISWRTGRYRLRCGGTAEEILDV
Kind of assay: (§1) Inhibition of GCS in human iPSC derived neurons assessed as reduction in […] GlcCer levels. Type of assay: cell-based. The following applies: Neuron.

The target of assay [2] is T2, Ceramide glucosyltransferase (Homo sapiens, UniProt Q16739).
T2 sequence (Q16739 whole entry): T1 sequence (whole entry)
The assay is described as §1. Type of assay: cell-based, Neuron.

Assay [3] has as its system Neuron. Kind of assay: Protection against PFFs induced lysosomal impairment in human iPSC derived neurons assessed as increase in lysosomal hydrolysis pretreated for 1 day followed by PFFs stimulation and measured after 14 days by immunocytochemistry analysis. Type of assay: functional, cell-based. The following applies: time 15.0 day.

Structures are written as SMILES.

Turning to `Cl.O=C(N1CCN2CCC1CC2)n1nc(-n2cc(C(F)(F)F)cn2)c2c1COCC2`, the inhibition entry in assay [1] was “Dose-Dependent Effect”. Moreover, the IC50 (as a rule, the midpoint of a concentration-inhibition curve) in assay [2] came out at 1.7 nM. In addition, in assay [3], the Activity result is “Dose-Dependent Effect”.
